Results taken from patent US8497245B2, “Trypsin-like serine protease inhibitors, their preparation and use as selective inhibitors of the clotting factors IIa and Xa” (The Medicines Company (Leipzig) GmbH, priority 2010, dated 2013).

Target: T1, human Factor Xa (Homo sapiens, UniProt P00742)
T1 construct: human Factor Xa from Enzyme Research Laboratories; purchased Enzyme Research Laboratories
Test: Inhibition constants for human factor Xa, chromogenic substrate assay
Assay type: biochemical
Conditions: 25° C., Pefachrome FXa substrate, average of at least three determinations; read-out: Ki h FXa
Protocol: (§1) The inhibitory effect against the individual purified enzymes was determined in analogy to a previously disclosed method (Stürzebecher et al., J. Med. Chem., 40, 3091-3099 (1997)).
(§2) 200 μL of TBS (0.05 M trishydroxymethylaminomethane; 0.154 M NaCl, 2% ethanol, pH 8.0)
(§3) The release of p-nitroaniline (p-NA, the chromogenic product of the proteolytic activity), was determined by change in absorbance at 405 nm. The equilibrium rates were used to calculate the inhibitor/enzyme dissociation constant (Ki values) by parameter fitting in accordance with the rate equation for competitive inhibition using GraFit (version 4 from Erithacus). The results are reported as Ki values (nanomolar) in table 7 and are the average of at least three determinations.

T1 sequence (P00742 235-488 limits assumed): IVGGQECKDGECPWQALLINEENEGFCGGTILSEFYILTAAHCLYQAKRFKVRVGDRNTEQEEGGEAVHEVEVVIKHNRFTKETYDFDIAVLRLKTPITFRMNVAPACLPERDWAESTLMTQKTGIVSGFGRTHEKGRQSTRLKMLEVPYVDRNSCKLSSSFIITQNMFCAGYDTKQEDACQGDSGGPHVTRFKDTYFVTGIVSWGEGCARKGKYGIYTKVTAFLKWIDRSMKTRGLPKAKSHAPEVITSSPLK
T1 sequence (P00742 41-179 partner limits assumed): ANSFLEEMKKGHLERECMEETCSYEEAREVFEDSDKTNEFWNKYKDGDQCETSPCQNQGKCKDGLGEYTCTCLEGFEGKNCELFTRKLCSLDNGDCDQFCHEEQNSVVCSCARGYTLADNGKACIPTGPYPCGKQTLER

**Q.** For `NCc1ccc(Cl)cc1CNC(=O)[C@@H]1C[C@H](O)CN1C(=O)[C@@H](CCC(=O)N1CCOCC1)NS(=O)(=O)Cc1ccccc1` [Compound 2.22], which Ki is on record?
**A.** 0.00068 µM

**Q.** Which Ki does the source give for `N[C@H]1C[C@@H](C(=O)NCc2cc(Cl)ccc2-n2cnnn2)N(C(=O)[C@@H](CCC(=O)N2CCOCC2)NS(=O)(=O)Cc2ccccc2)C1` [Compound 2.23] here?
**A.** 0.00032 µM

Target: T2, Human tissue-type plasminogen activator (h t-PA) (Homo sapiens, UniProt P00750)
T2 construct: purchased Boehringer Ingelheim Actilyse
T2 sequence (P00750 36-562): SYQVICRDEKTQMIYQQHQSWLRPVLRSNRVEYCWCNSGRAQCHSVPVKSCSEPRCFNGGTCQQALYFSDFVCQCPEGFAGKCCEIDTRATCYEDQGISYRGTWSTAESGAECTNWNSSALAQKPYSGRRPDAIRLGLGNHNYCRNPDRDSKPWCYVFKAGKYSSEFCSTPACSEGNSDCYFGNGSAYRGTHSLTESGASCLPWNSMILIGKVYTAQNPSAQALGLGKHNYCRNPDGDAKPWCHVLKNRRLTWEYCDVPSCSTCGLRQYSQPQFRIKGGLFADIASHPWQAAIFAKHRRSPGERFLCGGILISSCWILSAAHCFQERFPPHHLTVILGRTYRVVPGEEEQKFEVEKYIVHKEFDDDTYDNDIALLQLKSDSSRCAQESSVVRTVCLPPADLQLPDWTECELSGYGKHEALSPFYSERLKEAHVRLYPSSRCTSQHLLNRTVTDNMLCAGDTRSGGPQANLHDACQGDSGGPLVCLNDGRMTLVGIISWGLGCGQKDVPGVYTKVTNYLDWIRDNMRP
Test: Inhibition of human tissue-type plasminogen activator (reference enzyme)
Assay type: biochemical
Conditions: Pefachrome tPA substrate; read-out: Ki h t-PA
Protocol: The equilibrium rates were used to calculate the inhibitor/enzyme dissociation constant (Ki values) by parameter fitting in accordance with the rate equation for competitive inhibition using GraFit (version 4 from Erithacus).
(§4) Dissociation constants were calculated as described herein.

**Q.** For `NCc1ccc(Cl)cc1CNC(=O)[C@@H]1C[C@H](O)CN1C(=O)[C@@H](CCC(=O)N1CCOCC1)NS(=O)(=O)Cc1ccccc1` [Compound 2.22], which Ki is on record?
**A.** > 100 µM

**Q.** `N[C@H]1C[C@@H](C(=O)NCc2cc(Cl)ccc2-n2cnnn2)N(C(=O)[C@@H](CCC(=O)N2CCOCC2)NS(=O)(=O)Cc2ccccc2)C1` [Compound 2.23] was tested. Which Ki did it give?
**A.** 4.8 µM

Target: T3, Subcomponent "s" of Human Complement Component 1 (h C1s) (Homo sapiens, UniProt P09871)
T3 construct: purchased Calbiochem
T3 sequence (P09871 438-688 limits assumed): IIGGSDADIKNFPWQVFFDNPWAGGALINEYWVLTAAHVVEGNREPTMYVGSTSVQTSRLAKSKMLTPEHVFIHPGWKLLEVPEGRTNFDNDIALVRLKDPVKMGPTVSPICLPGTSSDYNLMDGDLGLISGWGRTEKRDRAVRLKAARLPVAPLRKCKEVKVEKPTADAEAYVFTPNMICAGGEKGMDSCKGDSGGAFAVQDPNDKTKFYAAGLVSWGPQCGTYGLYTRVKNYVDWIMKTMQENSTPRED
T3 sequence (P09871 16-437 partner limits assumed): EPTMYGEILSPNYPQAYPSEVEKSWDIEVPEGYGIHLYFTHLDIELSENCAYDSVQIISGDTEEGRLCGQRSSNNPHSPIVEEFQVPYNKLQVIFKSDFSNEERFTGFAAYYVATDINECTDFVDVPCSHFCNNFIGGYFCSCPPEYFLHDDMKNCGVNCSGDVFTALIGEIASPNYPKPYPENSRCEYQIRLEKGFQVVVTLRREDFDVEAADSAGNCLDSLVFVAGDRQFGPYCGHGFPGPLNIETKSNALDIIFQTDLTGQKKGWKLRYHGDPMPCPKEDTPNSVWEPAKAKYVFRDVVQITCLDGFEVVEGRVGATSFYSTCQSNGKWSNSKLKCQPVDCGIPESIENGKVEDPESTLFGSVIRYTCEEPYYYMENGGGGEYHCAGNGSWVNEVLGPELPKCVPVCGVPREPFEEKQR
Test: Inhibition of human C1s (reference enzyme)
Assay type: biochemical
Conditions: S-2314 substrate; read-out: Ki h Cls
Protocol: as §1, §3, §4

**Q.** For `NCc1ccc(Cl)cc1CNC(=O)[C@@H]1C[C@H](O)CN1C(=O)[C@@H](CCC(=O)N1CCOCC1)NS(=O)(=O)Cc1ccccc1` [Compound 2.22], which Ki is on record?
**A.** > 50 µM

**Q.** Which Ki does the source give for `N[C@H]1C[C@@H](C(=O)NCc2cc(Cl)ccc2-n2cnnn2)N(C(=O)[C@@H](CCC(=O)N2CCOCC2)NS(=O)(=O)Cc2ccccc2)C1` [Compound 2.23] here?
**A.** > 70 µM

Target: T4, Human urinary kallikrein (h uKK) (Homo sapiens, UniProt P06870)
T4 construct: purchased Lee Biosolutions
T4 sequence (P06870 25-262): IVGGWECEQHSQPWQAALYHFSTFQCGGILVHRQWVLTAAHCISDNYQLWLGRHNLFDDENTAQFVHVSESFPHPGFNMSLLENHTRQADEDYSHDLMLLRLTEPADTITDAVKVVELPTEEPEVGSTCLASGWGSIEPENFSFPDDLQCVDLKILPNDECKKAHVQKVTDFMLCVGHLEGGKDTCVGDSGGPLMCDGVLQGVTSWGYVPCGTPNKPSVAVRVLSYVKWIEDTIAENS
Test: Inhibition of human urinary kallikrein (reference enzyme)
Assay type: biochemical
Conditions: S-2266 substrate
Protocol: as §1, §3, §4

**Q.** For `NCc1ccc(Cl)cc1CNC(=O)[C@@H]1C[C@H](O)CN1C(=O)[C@@H](CCC(=O)N1CCOCC1)NS(=O)(=O)Cc1ccccc1` [Compound 2.22], which Ki is on record?
**A.** > 100 µM

**Q.** With `N[C@H]1C[C@@H](C(=O)NCc2cc(Cl)ccc2-n2cnnn2)N(C(=O)[C@@H](CCC(=O)N2CCOCC2)NS(=O)(=O)Cc2ccccc2)C1` [Compound 2.23] as the molecule, how does the Ki read?
**A.** > 50 µM

Target: T5, Human Activated Protein C (h aPC) (Homo sapiens, UniProt P04070)
T5 construct: purchased Enzyme Research Laboratories
T5 sequence (P04070 212-450 limits assumed): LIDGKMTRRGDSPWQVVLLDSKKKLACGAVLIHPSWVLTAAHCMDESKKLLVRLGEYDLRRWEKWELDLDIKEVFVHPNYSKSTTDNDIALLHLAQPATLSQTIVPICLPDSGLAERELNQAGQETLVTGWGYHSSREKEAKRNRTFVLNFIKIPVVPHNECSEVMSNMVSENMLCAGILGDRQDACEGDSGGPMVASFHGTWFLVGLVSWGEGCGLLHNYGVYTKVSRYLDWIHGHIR
T5 sequence (P04070 43-197 partner limits assumed): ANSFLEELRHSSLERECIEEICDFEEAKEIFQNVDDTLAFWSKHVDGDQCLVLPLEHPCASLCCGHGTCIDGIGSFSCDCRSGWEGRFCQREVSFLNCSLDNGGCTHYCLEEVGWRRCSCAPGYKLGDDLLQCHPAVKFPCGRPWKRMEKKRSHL
Test: Inhibition of human activated protein C (reference enzyme)
Assay type: biochemical
Conditions: Pefachrome PCa substrate
Protocol: as §1, §3, §4

**Q.** `NCc1ccc(Cl)cc1CNC(=O)[C@@H]1C[C@H](O)CN1C(=O)[C@@H](CCC(=O)N1CCOCC1)NS(=O)(=O)Cc1ccccc1` [Compound 2.22] was tested. Which Ki did it give?
**A.** > 25 µM

**Q.** Which Ki does the source give for `N[C@H]1C[C@@H](C(=O)NCc2cc(Cl)ccc2-n2cnnn2)N(C(=O)[C@@H](CCC(=O)N2CCOCC2)NS(=O)(=O)Cc2ccccc2)C1` [Compound 2.23] here?
**A.** 6.7 µM

Target: T6, Human urokinase type plasminogen activator (h u-PA) (Homo sapiens, UniProt P00749)
T6 construct: purchased MEDAC GmbH Urokinase HS medac
Test: Inhibition of human urokinase type plasminogen activator (reference enzyme)
Assay type: biochemical
Conditions: H-Glu-Gly-Arg-pNA substrate
Protocol: as §1, §3, §4

**Q.** How did the Ki turn out when `NCc1ccc(Cl)cc1CNC(=O)[C@@H]1C[C@H](O)CN1C(=O)[C@@H](CCC(=O)N1CCOCC1)NS(=O)(=O)Cc1ccccc1` [Compound 2.22] was run?
**A.** > 100 µM

**Q.** For `N[C@H]1C[C@@H](C(=O)NCc2cc(Cl)ccc2-n2cnnn2)N(C(=O)[C@@H](CCC(=O)N2CCOCC2)NS(=O)(=O)Cc2ccccc2)C1` [Compound 2.23], which Ki is on record?
**A.** > 100 µM

Target: T7, Human plasmin (h plasmin) (Homo sapiens, UniProt P00747)
T7 construct: purchased Calbiochem
T7 sequence (P00747 581-810 limits assumed): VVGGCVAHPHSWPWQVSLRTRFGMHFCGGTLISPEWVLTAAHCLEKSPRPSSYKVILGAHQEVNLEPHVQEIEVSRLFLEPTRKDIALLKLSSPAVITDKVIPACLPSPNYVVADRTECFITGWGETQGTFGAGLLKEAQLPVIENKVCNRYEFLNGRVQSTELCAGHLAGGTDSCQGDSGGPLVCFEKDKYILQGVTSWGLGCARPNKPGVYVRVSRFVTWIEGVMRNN
T7 sequence (P00747 97-580 partner limits assumed): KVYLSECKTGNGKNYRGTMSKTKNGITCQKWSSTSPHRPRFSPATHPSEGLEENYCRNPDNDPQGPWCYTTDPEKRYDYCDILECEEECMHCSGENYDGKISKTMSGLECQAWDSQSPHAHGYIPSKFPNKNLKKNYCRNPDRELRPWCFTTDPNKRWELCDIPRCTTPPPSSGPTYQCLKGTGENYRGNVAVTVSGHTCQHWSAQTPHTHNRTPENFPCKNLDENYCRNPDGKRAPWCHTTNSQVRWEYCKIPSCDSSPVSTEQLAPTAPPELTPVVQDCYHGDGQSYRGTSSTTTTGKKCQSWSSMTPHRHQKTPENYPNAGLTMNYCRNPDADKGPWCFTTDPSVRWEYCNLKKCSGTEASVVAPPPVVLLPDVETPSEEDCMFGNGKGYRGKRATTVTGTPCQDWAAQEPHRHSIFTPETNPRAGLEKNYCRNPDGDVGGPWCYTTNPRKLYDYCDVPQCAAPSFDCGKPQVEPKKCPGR
Test: Inhibition of human plasmin (reference enzyme)
Assay type: biochemical
Conditions: Chromozym PL substrate
Protocol: as §1, §3, §4

**Q.** Which Ki does the source give for `NCc1ccc(Cl)cc1CNC(=O)[C@@H]1C[C@H](O)CN1C(=O)[C@@H](CCC(=O)N1CCOCC1)NS(=O)(=O)Cc1ccccc1` [Compound 2.22] here?
**A.** > 100 µM

**Q.** With `N[C@H]1C[C@@H](C(=O)NCc2cc(Cl)ccc2-n2cnnn2)N(C(=O)[C@@H](CCC(=O)N2CCOCC2)NS(=O)(=O)Cc2ccccc2)C1` [Compound 2.23] as the molecule, how does the Ki read?
**A.** 1.99 µM

Target: T8, Subcomponent "r" of Human Complement Component 1 (h C1r) (Homo sapiens, UniProt P00736)
T8 construct: purchased Calbiochem
T8 sequence (P00736 464-705 limits assumed): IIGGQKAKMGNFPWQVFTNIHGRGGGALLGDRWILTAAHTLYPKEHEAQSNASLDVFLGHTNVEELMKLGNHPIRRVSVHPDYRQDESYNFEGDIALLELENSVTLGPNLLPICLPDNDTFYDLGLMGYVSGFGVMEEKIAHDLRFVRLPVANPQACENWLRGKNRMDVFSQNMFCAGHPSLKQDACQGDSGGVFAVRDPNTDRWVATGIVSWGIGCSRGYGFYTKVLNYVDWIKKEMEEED
T8 sequence (P00736 18-463 partner limits assumed): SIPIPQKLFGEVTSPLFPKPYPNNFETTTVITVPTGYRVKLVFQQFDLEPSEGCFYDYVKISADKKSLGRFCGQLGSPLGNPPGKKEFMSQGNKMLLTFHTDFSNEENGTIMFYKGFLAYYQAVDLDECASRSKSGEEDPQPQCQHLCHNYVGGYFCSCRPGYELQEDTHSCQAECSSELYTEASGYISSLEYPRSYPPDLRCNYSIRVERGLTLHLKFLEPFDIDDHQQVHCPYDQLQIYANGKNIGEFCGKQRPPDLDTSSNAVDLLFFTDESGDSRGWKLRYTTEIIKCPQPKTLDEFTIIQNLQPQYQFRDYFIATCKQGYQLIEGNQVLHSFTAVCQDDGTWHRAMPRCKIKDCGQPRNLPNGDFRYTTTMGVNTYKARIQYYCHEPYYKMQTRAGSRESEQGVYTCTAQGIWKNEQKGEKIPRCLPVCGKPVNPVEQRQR
Test: Inhibition of human C1r (reference enzyme)
Assay type: biochemical
Conditions: S-2314 substrate; read-out: Ki h Clr
Protocol: as §1, §3, §4

**Q.** Which Ki does the source give for `NCc1ccc(Cl)cc1CNC(=O)[C@@H]1C[C@H](O)CN1C(=O)[C@@H](CCC(=O)N1CCOCC1)NS(=O)(=O)Cc1ccccc1` [Compound 2.22] here?
**A.** > 100 µM

**Q.** How did the Ki turn out when `N[C@H]1C[C@@H](C(=O)NCc2cc(Cl)ccc2-n2cnnn2)N(C(=O)[C@@H](CCC(=O)N2CCOCC2)NS(=O)(=O)Cc2ccccc2)C1` [Compound 2.23] was run?
**A.** > 40 µM

Target: T9, human factor IIa (human alpha-thrombin) (Homo sapiens, UniProt P00734)
T9 construct: human alpha-thrombin from Enzyme Research Laboratories; purchased Enzyme Research Laboratories
Test: Inhibition constants for human factor IIa, chromogenic substrate assay
Assay type: biochemical
Conditions: 25° C., Pefachrome tPA substrate, average of at least three determinations; read-out: Ki h FIIa
Protocol: as §1, §2, §3

**Q.** `NCc1ccc(Cl)cc1CNC(=O)[C@@H]1C[C@H](O)CN1C(=O)[C@@H](CCC(=O)N1CCOCC1)NS(=O)(=O)Cc1ccccc1` [Compound 2.22] was tested. Which Ki did it give?
**A.** 0.085 µM

**Q.** How did the Ki turn out when `N[C@H]1C[C@@H](C(=O)NCc2cc(Cl)ccc2-n2cnnn2)N(C(=O)[C@@H](CCC(=O)N2CCOCC2)NS(=O)(=O)Cc2ccccc2)C1` [Compound 2.23] was run?
**A.** 0.0067 µM

Target: T10, Human plasma kallikrein (h PK) (Homo sapiens, UniProt P03952)
T10 construct: purchased Enzyme Research Laboratories
T10 sequence (P03952 391-638 limits assumed): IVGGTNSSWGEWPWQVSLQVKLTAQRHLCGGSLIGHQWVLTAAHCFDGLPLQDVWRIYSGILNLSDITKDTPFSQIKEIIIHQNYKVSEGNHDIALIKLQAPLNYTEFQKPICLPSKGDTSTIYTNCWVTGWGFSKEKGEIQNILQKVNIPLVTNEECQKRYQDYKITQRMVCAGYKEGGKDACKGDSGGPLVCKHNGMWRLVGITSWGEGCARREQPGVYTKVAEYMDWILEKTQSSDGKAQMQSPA
T10 sequence (P03952 20-390 partner limits assumed): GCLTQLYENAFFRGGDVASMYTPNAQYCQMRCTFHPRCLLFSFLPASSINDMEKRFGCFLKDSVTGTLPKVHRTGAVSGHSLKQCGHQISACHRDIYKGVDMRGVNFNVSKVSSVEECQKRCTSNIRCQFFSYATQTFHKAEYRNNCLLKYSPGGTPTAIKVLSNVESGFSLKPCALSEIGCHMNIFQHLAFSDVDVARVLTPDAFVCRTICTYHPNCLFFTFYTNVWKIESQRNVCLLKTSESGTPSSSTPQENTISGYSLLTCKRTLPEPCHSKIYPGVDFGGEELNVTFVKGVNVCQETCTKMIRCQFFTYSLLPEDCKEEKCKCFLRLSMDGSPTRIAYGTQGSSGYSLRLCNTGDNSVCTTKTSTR
Test: Inhibition of human plasma kallikrein (reference enzyme)
Assay type: biochemical
Conditions: S2302 substrate
Protocol: as §1, §3, §4

**Q.** For `NCc1ccc(Cl)cc1CNC(=O)[C@@H]1C[C@H](O)CN1C(=O)[C@@H](CCC(=O)N1CCOCC1)NS(=O)(=O)Cc1ccccc1` [Compound 2.22], which Ki is on record?
**A.** 2.69 µM

**Q.** For `N[C@H]1C[C@@H](C(=O)NCc2cc(Cl)ccc2-n2cnnn2)N(C(=O)[C@@H](CCC(=O)N2CCOCC2)NS(=O)(=O)Cc2ccccc2)C1` [Compound 2.23], which Ki is on record?
**A.** 0.39 µM
